Measurements published in patent US20130039857A1, “METHODS OF SUPPRESSING CANCER, INCREASING WEIGHT LOSS AND/OR INCREASING INSULIN SENSITIVITY” (priority 2010, published 2013).

Key:
[1] = system: ACC S79 (ACC1) and S221 (ACC2) phosphorylation; test: Western blot of phospho-ACC in white gastrocnemius; format: in vivo, mouse; conditions: SU6656 4 mg/kg, 3 hr after injection, vs vehicle
Experimental: (§1) Animals were injected with vehicle or SU6656 (4 mg/kg) at the beginning of the light cycle. They were anesthetized and sacrificed by cervical dislocation 3 hr after the injection. Tissues were rapidly freeze clamped in liquid nitrogen and stored at […]. Protein preparation and blotting were performed as described below. Tissues were ground in liquid nitrogen and homogenized in a buffer containing 50 mM Tris (pH 7.4), 1% glycerol, and 1% Triton X-100 supplemented with protease inhibitor (Complete Mini, Roche Pharmaceuticals, Nutley, N. J.). Homogenates were centrifuged for 30 min at 14,000 rpm at 4° C., and supernatants were collected. Protein concentration was determined with the BCA™ Protein Assay (Thermo Scientific, Rockford, Ill.).
(§2) Protein samples (40 μg) were separated on 8% or 10% reducing polyacrylamide gels and transferred onto Immobilon-P polyvinylidene difluoride membranes. […] Alternatively, immunoblots were incubated with IRDye800CW goat antimouse (H+L) or IRDye680 goat anti-rabbit (H+L) secondary antibodies, and signal was detected with the Odyssey® Infrared Imaging System (Li-COR Biotechnology, Lincoln, Nebr.).

[2] = Total body mass and magnetic resonance imaging (fat and lean mass), wild-type mice; format: in vivo, mouse
Experimental: Total body mass (g) was recorded before (T=0) and 12 hr (T=12 hr) after the SU6656 injection. To determine fat and lean mass, animals were placed in a clear plastic holder without anesthesia or sedation and inserted into the EchoMRI-3-in-1™ System from Echo Medical Systems (Houston, Tex., USA). Total body fat and lean mass were measured before (T=0) and after (T=12 hr) after the injection.
As mice generally consume 80% of their calories during the dark cycle and have a limited food intake during the light cycle, they undergo a diurnal pattern of weight gain and loss as shown by the decreased body mass at T=12 hr in the vehicle-treated mice. […] To determine whether the lowered RQ in the mice treated with SU6656 was directly due to increased skeletal muscle fatty acid oxidation, red soleus and white gastrocnemius muscles were isolated 3 hr following the vehicle or SU6656 injection and incubated with ^14C-palmitate. The oxidation of ^14C-palmitate to ^14CO2 was increased 25% and 33%, respectively, in the soleus and the gastrocnemius of the SU6656-treated mice relative to vehicle treated controls (FIGS. 3A and 3B). The SU6656-stimulated increase in fatty acid oxidation occurred concomitantly, with an approximate 3-fold increased AMPK α subunit T172 phosphorylation and increased ACC S79 (ACC1) and S221 (ACC2) phosphorylation levels (FIGS. 3C and 3D).

[3] = system: AMPK α subunit T172 phosphorylation; test: Western blot of phospho-T172 AMPK in white gastrocnemius; format: in vivo, mouse; conditions: SU6656 4 mg/kg, 3 hr after injection, vs vehicle
Experimental: as §1, §2

[4] = system: Wild-type mice; test: Whole-body indirect calorimetry, wild-type mice; format: in vivo, mouse
Text: (§3) Eight- to ten-week-old male C57BL6/J, pp59^fyn null mice and their controls were obtained from The Jackson Laboratory (Bar Harbor, Me.) and housed in a facility equipped with a 12 hr light/dark cycle. Animals were fed ad libitum a standard chow diet (Research Diets, New Brunswick, N. J.) containing 75.9% (Kcal) carbohydrates, 14.7% protein, and 9.4% fat. All studies were approved by and performed in compliance with the guidelines of the Yeshiva University Institutional Animal Care and Use Committee (IACUC).
(§4) Oxygen and carbon dioxide consumption were simultaneously determined by Oxymax open-circuit indirect calorimetry system (eight-cage system) (Columbus Instruments). Animals were allowed to acclimatize for two complete light and dark cycles (48 hr), and SU6656 (2-oxo-3-(4,5,6,7-tetrahydro-1H-indol-2-ylmethylene)-2,3-dihydro-1H-indole-5-sulfonic acid dimethylamide) injections were performed at the beginning of the light cycle the following day. Measurements were subsequently taken 12 hr following the injection. Data were analyzed as the average of 1 hr measurements for each mouse. Instrument settings were as follows: gas flow rate, 0.6 1/min; sample flow rate, 0.5 1/min; settle time, 120 s; measure time, 60 s.
Loss of Fyn kinase protein in the conventional Fyn knockout mice leads to increased lipid utilization and energy expenditure, particularly in the fasting/resting state (Bastie et al., 2007). To examine the effects of acute Fyn inhibition, the in vivo effects of the pharmacological selective Src family kinase inhibitor SU6656 was investigated. Wild-type mice were placed into metabolic chambers and allowed to acclimatize for 48 hr. Intraperitoneal injection of SU6656 or vehicle was performed at the beginning of the light cycle (fasting/resting state), and the respiratory quotient (RQ), oxygen consumption (VO2), energy expenditure (EE), and physical activity were monitored for the following 12 hr. […] Oxygen consumption and energy expenditure were similar in both groups before the injection and were decreased during the light period as the animals were resting with reduced basal metabolism.

[5] = system: Fyn knockout mice; test: Whole-body indirect calorimetry and body mass, Fyn knockout mice; format: in vivo, mouse
Text: as §3, §4
To address this issue, the metabolic effect of SU6656 on wild type versus Fyn knockout mice was investigated. […]

[6] = system: LKB1 subcellular localization in C2C12 muscle cell line; test: GFP-LKB1 subcellular localization in C2C12 myotubes; format: cell-based; design: dose or concentration left out as unconfirmed; conditions: C2C12 myotubes transfected with pEGFP-LKB1
Experimental: FIGS. 4A-4F. Fyn Kinase Activity Regulates LKB1 Subcellular Distribution. (4A) C2C12 myotubes were transfected with pEGFP-LKB1 and incubated with vehicle or SU6656 ([…]) for 2 hr. Cells were fixed and mounted with proQ diamond with DAPI solution. (4B) Shown is percentage of cells with pEGFPLKB1 signal detected in the cytoplasm. (4C) C2C12 myotubes were cotransfected with pEGFP-LKB1 and pcDNA3-Fyn-KD or pcDNA3-Fyn-CA. Cells were fixed and incubated with the mouse Fyn monoclonal antibody. Immunofluorescence was performed using the Alexa Fluor 594 Anti-mouse IgG. (4D) Percentage of C2C12 cells with pEGFP-LKB1 signal detected in the cytoplasm. Data are representative of n=5 experiments. (4E) Fully differentiated 3T3L1 adipocytes were cotransfected with pcDNA3-LKB1 and pcDNA3-Fyn-KD or pcDNA3-Fyn-CA. […] (4F) Percentage of 3T3L1 cells with LKB1 signal detected in the cytoplasm. […]
The ratio of cytosolic and nuclear LKB1 was quantified using the Image J software (National Institutes of Health). […]
C2C12 myotubes were cotransfected with 50 μg pEGFP-C2-LKB1 or pcDNA3-Flag-LKB1 or pcDNA3-Flag-LKB1 mutants and 200 μg of the indicated pcDNA3-Fyn constructs. […] Cells were imaged using a confocal fluorescence microscope (TCS SP5 confocal; Leica Microsystems). […]

[7] = system: red soleus and white gastrocnemius muscles; test: Fatty acid oxidation in isolated muscles (14C-palmitate to 14CO2); format: in vivo, mouse; conditions: relative to vehicle treated controls
Experimental: Animals received a single intraperitoneal injection of SU6656 or vehicle in the morning. Mice were sacrificed by cervical dislocation 3 hr after the injection. Skeletal muscles (red soleus and white gastrocnemius) were rapidly removed and preincubated for 10 min in oxygenated (95% O2, 5% CO2) Earle's solution (Invitrogen, Carlsbad, Calif.) supplemented with 5 mMD-glucose, 250 μM palmitate, and 0.5% BSA plus either 10 μM SU6656 or an equal volume of DMSO. Tissues were incubated for 45 min in the same buffer containing […] palmitate containing 1 μCi/ml [1-^14C] palmitate tracer (Amersham, Piscataway, N. J.) bound to 0.5% BSA. Incubations were carried out under an atmosphere of 95% O2/5% CO2 at 30° C. in glass vials (Kontes, Vineland, N.J.) equipped with a center well filled with 200 μl of 2N NaOH (trapping agent). At the end of the incubation, perchloric acid was added through the cap to a concentration of […], and vials were incubated for 3 hr at 30° C. with moderate shaking. The ^14CO2 produced was determined by scintillation counting of NaOH using the UniScintBD scintillation liquid (National Diagnostics, Atlanta, Ga.).
As mice generally consume 80% of their calories during the dark cycle and have a limited food intake during the light cycle, they undergo a diurnal pattern of weight gain and loss as shown by the decreased body mass at T=12 hr in the vehicle-treated mice. […]

[8] = system: LKB1; test: Endogenous LKB1 immunofluorescence in skeletal muscle in vivo; design: species or system mouse; conditions: wild-type mice treated with SU6656
[9] = target: Fyn kinase (Homo sapiens, UniProt P06241); design: dose or concentration left out as unconfirmed; conditions: cited from earlier work
[10] = SU6656 4 mg/kg intraperitoneal, light period, 12 hr following injection

Sequence of Fyn kinase (P06241 1-534 isoform P06241-2): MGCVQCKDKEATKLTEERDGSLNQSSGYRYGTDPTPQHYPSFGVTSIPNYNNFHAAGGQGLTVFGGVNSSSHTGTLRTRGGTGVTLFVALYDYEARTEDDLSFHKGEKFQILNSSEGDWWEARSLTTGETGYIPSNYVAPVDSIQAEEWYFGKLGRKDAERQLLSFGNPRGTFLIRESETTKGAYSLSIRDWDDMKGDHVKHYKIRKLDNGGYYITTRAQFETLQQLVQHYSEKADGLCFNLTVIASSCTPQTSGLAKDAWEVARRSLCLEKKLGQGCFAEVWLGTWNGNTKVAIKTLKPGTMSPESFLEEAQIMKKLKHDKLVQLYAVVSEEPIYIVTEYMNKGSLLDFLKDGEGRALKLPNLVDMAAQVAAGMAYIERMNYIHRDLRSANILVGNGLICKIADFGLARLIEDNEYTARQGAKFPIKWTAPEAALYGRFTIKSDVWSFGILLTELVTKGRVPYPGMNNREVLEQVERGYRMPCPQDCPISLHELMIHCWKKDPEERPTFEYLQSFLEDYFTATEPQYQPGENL

With `CN(C)S(=O)(=O)c1ccc2c(c1)C(=Cc1cc3c([nH]1)CCCC3)C(=O)N2` [SU6656, 2-oxo-3-(4,5,6,7-tetrahydro-1H-indol-2-ylmethylene)-2,3-dihydro-1H-indole-5-sulfonic acid dimethylamide] as the compound, how does the “ACC S79 (ACC1) and S221 (ACC2) phosphorylation levels” value [1] read?
Its value is “increased”.

And the “total weight loss greater than vehicle-treated group” value ([2]; 12 hr after SU6656 injection)?
The value was 40%.

What about the fat mass ([2]; T=12 hr, SU6656-treated vs vehicle-injected control animals) of the same compound?
Its fat mass is “significantly reduced”.

And the lean mass ([2]; T=12 hr, vehicle vs SU6656-injected mice)?
The lean mass was “no significant difference”.

What about the “increased AMPK α subunit T172 phosphorylation” value [3] of the same compound?
The value was ~3 fold.

What about the “decrease of respiratory quotient (RQ)” value ([4]; SU6656 4 mg/kg intraperitoneal at beginning of light cycle, vs vehicle, particularly first 3 hr after injection) of the same compound?
Its value is “more pronounced”.

What about the “energy expenditure (EE) elevation vs vehicle” value [4, 10] of the same compound?
The value was 14%.

What about the “oxygen consumption (VO2) elevation vs vehicle” value [4, 10] of the same compound?
The value was 14%.

What about the physical activity ([4]; SU6656 4 mg/kg, dark or light cycle) of the same compound?
The physical activity was “without any alteration”.

What about the “respiratory quotient (RQ), wild-type controls of Fyn knockout mice” value ([4]; three-month-old wild-type mice, SU6656 vs vehicle, 12 hr following injection) of the same compound?
The value was “lower RQ”.

What about the “body mass or physical activity in Fyn null mice” value ([5]; after SU6656 treatment) of the same compound?
Its value is “no alterations”.

What about the “rate of change or RQ level in Fyn knockout mice” value ([5]; three-month-old Fyn knockout mice, SU6656 vs vehicle) of the same compound?
Its value is “no significant effect”.

What about the “cells with redistribution of LKB1 into the cytoplasm” value [6] of the same compound?
Its value is “approximately 65%”.

And the “increase in oxidation of 14C-palmitate to 14CO2, soleus” value ([7]; red soleus isolated 3 hr after injection)?
Its value is 25%.

What about the “increase in oxidation of 14C-palmitate to 14CO2, gastrocnemius” value ([7]; white gastrocnemius isolated 3 hr after injection) of the same compound?
The value was 33%.

What about the “LKB1 signal in the cytoplasm of muscle cells” value [8] of the same compound?
Its value is “increased LKB1 signal”.

And the Fyn kinase activity [9]?
Its Fyn kinase activity is “sufficient to inactivate”.
